Columns and labels:
MAGL [1] = target: T1, MAGL (Homo sapiens, UniProt Q99685); experiment: In vitro competitive activity-based protein profiling, MAGL, human; conditions: for inhibition at 10 µM: read-out: MAGL % inh. (human) at 10 uM; for inhibition at 1 µM: read-out: MAGL % inh. 1 μM (human)
T1 sequence (Q99685 1-303): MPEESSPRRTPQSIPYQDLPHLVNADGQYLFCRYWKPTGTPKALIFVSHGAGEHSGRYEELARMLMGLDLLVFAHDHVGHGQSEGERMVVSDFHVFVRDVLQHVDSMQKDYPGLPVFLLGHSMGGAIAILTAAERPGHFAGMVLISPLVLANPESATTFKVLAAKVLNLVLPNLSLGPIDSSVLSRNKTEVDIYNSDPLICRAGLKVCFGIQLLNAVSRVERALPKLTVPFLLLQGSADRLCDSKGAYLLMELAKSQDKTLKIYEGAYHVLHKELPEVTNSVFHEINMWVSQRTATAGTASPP
Method: Biological Evaluation In Vitro Competitive Activity-Based Protein Profiling.
Proteomes (mouse brain membrane fraction for mouse assays; human prefrontal cortex membrane fractions for human assays) (50 mL, 1.0 mg/mL total protein concentration) were preincubated with varying concentrations of inhibitors at 37° C. After 30 min, FP-Rh (1.0 mL, 50 mM in DMSO) was added and the mixture was incubated for another 30 min at 37° C. Reactions were quenched with SDS loading buffer (15 μL—4λ) and run on SDS-PAGE.

MAGL [2] = target: T2, MAGL (Mus musculus, UniProt O35678); experiment: In vitro competitive activity-based protein profiling, MAGL, mouse; conditions: read-out: MAGL % inh. 1 μM (mouse)
T2 sequence (O35678 1-303): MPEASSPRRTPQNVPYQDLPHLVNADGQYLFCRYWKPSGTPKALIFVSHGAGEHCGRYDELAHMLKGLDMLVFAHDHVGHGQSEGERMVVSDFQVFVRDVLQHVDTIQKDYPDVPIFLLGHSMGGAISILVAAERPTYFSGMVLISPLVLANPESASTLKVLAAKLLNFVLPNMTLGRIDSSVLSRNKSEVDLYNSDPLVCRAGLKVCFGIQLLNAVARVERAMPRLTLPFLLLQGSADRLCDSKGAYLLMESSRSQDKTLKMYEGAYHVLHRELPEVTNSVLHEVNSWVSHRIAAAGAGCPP

FAAH [3] = target: T3, FAAH (Homo sapiens, UniProt O00519); experiment: In vitro competitive activity-based protein profiling, FAAH, human; conditions: for inhibition at 1 µM: read-out: FAAH % inh. 1 μM (human)
T3 sequence (O00519 1-579): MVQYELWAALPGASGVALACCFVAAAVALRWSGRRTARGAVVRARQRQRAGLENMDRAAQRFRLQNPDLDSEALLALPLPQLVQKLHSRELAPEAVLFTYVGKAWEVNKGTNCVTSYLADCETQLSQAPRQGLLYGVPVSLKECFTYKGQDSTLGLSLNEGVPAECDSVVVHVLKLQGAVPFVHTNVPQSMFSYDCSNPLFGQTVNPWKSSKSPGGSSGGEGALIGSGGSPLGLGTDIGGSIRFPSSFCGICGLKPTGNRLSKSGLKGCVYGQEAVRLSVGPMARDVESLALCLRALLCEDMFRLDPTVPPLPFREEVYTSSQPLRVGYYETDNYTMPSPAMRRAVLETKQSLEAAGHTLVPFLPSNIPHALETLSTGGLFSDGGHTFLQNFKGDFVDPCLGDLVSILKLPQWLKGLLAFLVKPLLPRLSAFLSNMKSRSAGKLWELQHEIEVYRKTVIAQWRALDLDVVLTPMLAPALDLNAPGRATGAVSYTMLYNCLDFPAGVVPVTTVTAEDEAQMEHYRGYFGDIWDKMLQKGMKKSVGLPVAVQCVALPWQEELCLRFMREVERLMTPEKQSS

FAAH [4] = target: T4, FAAH (Mus musculus, UniProt O08914); experiment: In vitro competitive activity-based protein profiling, FAAH, mouse; conditions: read-out: FAAH % inh. 1 μM (mouse)
T4 sequence (O08914 1-579): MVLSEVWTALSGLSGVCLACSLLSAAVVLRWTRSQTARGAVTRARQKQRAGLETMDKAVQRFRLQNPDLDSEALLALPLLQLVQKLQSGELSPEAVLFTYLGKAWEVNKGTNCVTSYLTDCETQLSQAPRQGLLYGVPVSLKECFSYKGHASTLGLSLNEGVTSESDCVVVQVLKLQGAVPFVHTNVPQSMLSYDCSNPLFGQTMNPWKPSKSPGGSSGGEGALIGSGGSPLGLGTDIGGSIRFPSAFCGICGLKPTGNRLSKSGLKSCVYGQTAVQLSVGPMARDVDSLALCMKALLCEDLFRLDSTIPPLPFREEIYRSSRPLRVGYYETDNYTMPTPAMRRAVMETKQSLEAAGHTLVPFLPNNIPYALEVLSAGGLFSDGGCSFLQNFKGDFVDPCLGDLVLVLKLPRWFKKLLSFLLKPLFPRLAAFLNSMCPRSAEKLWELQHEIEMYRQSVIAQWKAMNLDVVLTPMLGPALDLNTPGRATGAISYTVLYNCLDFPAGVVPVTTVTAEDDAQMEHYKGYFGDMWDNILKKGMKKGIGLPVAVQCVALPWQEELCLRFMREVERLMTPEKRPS

| inhibition at 10 µM (MAGL [1]) [%] | inhibition at 1 µM (MAGL [2]) [%] | inhibition at 50 µM (FAAH [3]; read-out: FAAH % inh. (human) at 50 uM) [%] | inhibition at 1 µM (FAAH [4]) [%] | inhibition at 1 µM (FAAH [3]) [%] | IC50 (MAGL [1]) [µM] | inhibition at 1 µM (MAGL [1]) [%] | IC50 (FAAH [3]) [µM] | SMILES |
| --- | --- | --- | --- | --- | --- | --- | --- | --- |
| > 75 | 0 to 25 | > 75 | 0 to 25 |  |  |  |  | O=C(O)c1nn(C(=O)N2CC3CN(Cc4ccc(-c5nnn[nH]5)cc4C(F)(F)F)CC3C2)cc1Cl (stereo not shown) [Example 141, 1-(5-(4-(1H-tetrazol-5-yl)-2-(trifluoromethyl)benzyl)octahydro-pyrrolo[3,4-c]pyrrole-2-carbonyl)-4-chloro-1H-pyrazole-3-carboxylic acid] |
| > 75 | 0 to 25 |  | 0 to 25 | 0 to 25 |  |  |  | O=C(O)c1nn(C(=O)N2CCN(Cc3ccc(-c4nnn[nH]4)cc3C(F)(F)F)CC2)cc1Cl [Example 142, 1-(4-(4-(1H-tetrazol-5-yl)-2-(trifluoromethyl)benzyl)piperazine-1-carbonyl)-4-chloro-1H-pyrazole-3-carboxylic acid] |
|  | 0 to 25 |  | > 75 | > 75 | 1 to 10 | 0 to 25 | 0.1 to 1 | O=C(O)c1nn(C(=O)N2CC3CC(OCc4ccccc4Cl)CC3C2)cc1C(F)(F)F (stereo not shown) [Example 143, 1-(5-((2-chlorobenzyl)oxy)octahydrocyclopenta [c]pyrrole-2-carbonyl)-4-(trifluoromethyl)-1H-pyrazole-3-carboxylic acid] |
|  | > 75 |  | > 75 | > 75 |  | > 75 |  | C#Cc1ccc(CN2CCN(C(=O)n3ccc(C(N)=O)n3)CC2)cc1 [Example 144, 1-(4-(4-ethynylbenzyl)piper-azine-1-carbonyl)-1H-pyrazole-3-carboxamide] |
|  | > 75 |  | > 75 | 50 to 75 |  | > 75 |  | O=C(O)c1nn(C(=O)N2CCN(Cc3ccc(-c4cnc5ccccn45)cc3C(F)(F)F)CC2)cc1Cl [Example 145, 4-chloro-1-(4-(4-(imidazo[1,2-a]pyridin-3-yl)-2-(trifluoromethyl)benzyl)piperazine-1-carbonyl)-1H-pyrazole-3-carboxylic acid] |
|  | 50 to 75 |  | > 75 | > 75 |  | > 75 |  | O=C(O)c1nn(C(=O)N2CC3CN(Cc4cc(Cl)ccc4Cl)CC3C2)cc1C(F)(F)F (stereo not shown) [Example 146, 1-(5-(2,5-dichlorobenzyl)octa-hydropyrrolo[3,4-c]pyrrole-2-carbonyl)-4-(trifluoromethyl)-1H-pyrazole-3-carboxylic acid] |
|  | 0 to 25 |  | > 75 | > 75 |  | > 75 |  | O=C(O)c1nn(C(=O)N2CC3CN(Cc4cccc(Oc5ccc(Cl)cc5)c4)CC3C2)cc1C(F)(F)F (stereo not shown) [Example 147, 1-(5-(3-(4-chlorophenoxy)benzyl)octahydro-pyrrolo[3,4-c]pyrrole-2-carbonyl)-4-(trifluoromethyl)-1H-pyrazole-3-carboxylic acid] |
|  | > 75 |  | > 75 | 25 to 50 | 0.1 to 1 | > 75 | 1 to 10 | O=C(O)c1nn(C(=O)N2CCC3(CCCN3Cc3cc4ccc(C(F)(F)F)cc4s3)CC2)cc1C(F)(F)F [Example 149, 4-(trifluoromethyl)-1-(1-((6-(trifluoromethyl)benzo[b]thiophen-2-yl)methyl)-1,8-diazaspiro[4.5]decane-8-carbonyl)-1H-pyrazole-3-carboxylic acid] |
|  | 25 to 50 |  | > 75 | 50 to 75 |  | 25 to 50 |  | O=C(O)c1nn(C(=O)N2CCC3(CCN(Cc4ccc(N5CCCC5)cc4C(F)(F)F)C3)CC2)cc1C(F)(F)F [Example 150, 1-(2-(4-(pyrrolidin-1-yl)-2-(trifluoromethyl)benzyl)-2,8-diazaspiro[4.5]decane-8-carbonyl)-4-(trifluoromethyl)-1H-pyrazole-3-carboxylic acid] |
|  | > 75 |  | 25 to 50 | 25 to 50 |  | > 75 |  | O=C(O)c1nn(C(=O)N2CC3CN(Cc4cc(N5CCCC5)cc(C(F)(F)F)c4)CC3C2)cc1Cl (stereo not shown) [Example 151, 4-chloro-1-(5-(3-(pyrrolidin-1-yl)-5-(trifluoromethyl)benzyl)octahydro-pyrrolo[3,4-c]pyrrole-2-carbonyl)-1H-pyrazole-3-carboxylic acid] |
|  | > 75 |  | 50 to 75 | 0 to 25 |  | > 75 |  | O=C(O)c1ccn(C(=O)N2CCC3(CCN(Cc4cc(F)cc(C(F)(F)F)c4)C3)CC2)n1 [Example 152, 1-(2-(3-fluoro-5-(trifluoromethyl)benzyl)-2,8-diazaspiro[4.5]decane-8-carbonyl)-1H-pyrazole-3-carboxylic acid] |
|  | > 75 |  | 25 to 50 | 0 to 25 |  | > 75 |  | O=C(O)c1ccn(C(=O)N2CCC3(CCN(Cc4cccc(OC(F)(F)F)c4)C3)CC2)n1 [Example 153, 1-(2-(3-(trifluoromethoxy)benzyl)-2,8-diazaspiro[4.5]decane-8-carbonyl)-1H-pyrazole-3-carboxylic acid] |
|  | > 75 |  | 0 to 25 | 0 to 25 |  | > 75 |  | Cc1ccc(CN2CCC3(CCN(C(=O)n4ccc(C(=O)O)n4)CC3)C2)cc1Cl [Example 154, 1-(2-(3-chloro-4-methylbenzyl)-2,8-diazaspiro[4.5]decane-8-carbonyl)-1H-pyrazole-3-carboxylic acid] |
|  | > 75 |  | 0 to 25 | 0 to 25 | 0.1 to 1 | > 75 | 1 to 10 | Cc1cc(CN2CCC3(CCN(C(=O)n4ccc(C(=O)O)n4)CC3)C2)ccc1C(F)(F)F [Example 155, 1-(2-(3-methyl-4-(trifluoromethyl)benzyl)-2,8-diazaspiro[4.5]decane-8-carbonyl)-1H-pyrazole-3-carboxylic acid] |
|  | > 75 |  | > 75 | 0 to 25 |  | > 75 |  | O=C(O)c1ccn(C(=O)N2CC3CN(Cc4cccc(-c5ccccc5)c4)CC3C2)n1 (stereo not shown) [Example 156, 1-(5-([1,1′-biphenyl]-3-ylmethyl)octahydropyrrolo[3,4-c]pyrrole-2-carbonyl)-1H-pyrazole-3-carboxylic acid] |
|  | > 75 |  | > 75 | > 75 |  | > 75 |  | O=C(O)c1ccn(C(=O)N2CCN(Cc3cc(F)cc(Oc4ccc(Cl)cc4)c3)CC2)n1 [Example 161, 1-(4-(3-(4-chlorophenoxy)-5-fluorobenzyl)pipera-zine-1-carbonyl)-1H-pyrazole-3-carboxylic acid] |

— patent US10266497B2 (ABIDE THERAPEUTICS, INC., priority 2017, dated 2019)
